The values that follow come from US8680269B2, “Pesticidal compositions” (Dow AgroSciences, LLC., priority 2009, dated 2014).

The structures appear in SMILES notation. Bounds are passed on as bounds.

Type in all cases: in vivo
Assay [1] has as its system corn earworm (CEW; Helicoverpa zea). The assay is described as follows: Insecticidal test for corn earworm, 128-well diet tray assay. The note with it: 144 h, 50 μg/cm2 on artificial diet, second instar larvae, six days at 25° C. The protocol: (§1) Bioassays on corn earworm (CEW; Helicoverpa zea: Lepidoptera) were conducted using a 128-well diet tray assay. Three to five second instar CEW larvae were placed in each well (3 mL) of the diet tray that had been previously filled with 1 mL of artificial diet to which 50 μg/cm^2 of the test compound (dissolved in 50 μL of 90:10 acetone-water mixture) had been applied (to each of eight wells) and then allowed to dry. Trays were covered with a clear self-adhesive cover, and held at 25° C., 14:10 light-dark for six days. Percent mortality was recorded for the larvae in each well; activity in the eight wells was then averaged.

Assay [2] has as its system beet armyworm (BAW; Spodoptera exigua). As to the kind of experiment: Insecticidal test for beet armyworm, 128-well diet tray assay. The note with it: 144 h, 50 μg/cm2 on artificial diet, second instar larvae, six days at 25° C. The protocol:
as §1, with “beet armyworm (BAW; Spodoptera exigua:” for “corn earworm (CEW; Helicoverpa zea:”, “BAW” for “CEW”

The subject of assay [3] is green peach aphid (Myzus persicae). As to the kind of experiment: Insecticidal test for green peach aphid in foliar spray assay. To be noted: 72 h, 200 ppm foliar spray on cabbage seedlings, graded after three days, Abbott corrected % control, read-out: Mortality GPA 200 ppm. The protocol:
Cabbage seedlings grown in 3-inch pots, with 2-3 small (3-5 cm) true leaves, were used as test substrate. The seedlings were infested with 20-50 green peach aphids (wingless adult and nymph) one day prior to chemical application. Four pots with individual seedlings were used for each treatment. Compounds (2 mg) were dissolved in 2 mL of acetone/methanol (1:1) solvent, forming stock solutions of 1000 ppm. The stock solutions were diluted 5× with 0.025% Tween 20 in H2O to obtain the test solution at 200 ppm. A hand-held Devilbiss sprayer was used for spraying a solution to both sides of cabbage leaves until runoff. Reference plants (solvent check) were sprayed with the diluent only. Treated plants were held in a holding room for three days at approximately 25° C. and 40% relative humidity (RH) prior to grading. Evaluation was conducted by counting the number of live aphids per plant under a microscope. Insecticidal activity data, measured by using Abbott's correction formula, are presented in Table 2: Corrected % Control=100*(X−Y)/X • where X=No. of live aphids on solvent check plants • Y=No. of live aphids on treated plants

What is called mortality is the percentage killed. Take `O=C(c1ccccc1NC(=S)N/N=C/c1ccc(-c2ncn(-c3ccc(OC(F)(F)F)cc3)n2)cc1)C(F)(F)F` [Compound 61]: the mortality at 50 µg/cm2 in assay [1] and in assay [2] was 50 to 100% each time. For the same compound, in assay [3], the mortality at 200 ppm was less than 80%.

As to `COc1ccc(NC(=O)N/N=C/c2ccc(-c3ncn(-c4ccc(OC(F)(F)F)cc4)n3)cc2)c(C)c1` [Compound 119], the mortality at 50 µg/cm2 in assay [1] and in assay [2] was 50 to 100% in each case. Moreover, the mortality at 200 ppm in assay [3] was less than 80%.

As for `FC(F)(F)Oc1ccc(-n2cnc(-c3ccc(/C=N/NC(=S)NC4CCCCC4)cc3)n2)cc1` [Compound 25], the mortality at 50 µg/cm2 in assay [1] and in assay [2] was 50 to 100% throughout. Moreover, the mortality at 200 ppm in assay [3] is less than 80%.

In the case of `COc1ccc(NC(=S)N/N=C/c2ccc(-c3cn(-c4ccc(OC(F)(F)F)cc4)cn3)cc2)cc1` [Compound 67], the mortality at 50 µg/cm2 in assay [1] and in assay [2] was 50 to 100% throughout. Moreover, in assay [3], the mortality at 200 ppm was less than 80%.

`FC(F)(F)Oc1ccc(-n2cnc(-c3ccc(/C=N/NC(=S)NCCOc4ccccn4)cc3)n2)cc1` [Compound 17]: the mortality at 50 µg/cm2 in assay [1] and in assay [2] was 50 to 100% each time. Besides, the mortality at 200 ppm in assay [3] is less than 80%.

On to `CC(=O)c1ccc(NC(=S)N/N=C/c2ccc(-c3ncn(-c4ccc(OC(F)(F)F)cc4)n3)cc2)cc1` [Compound 33], for which the mortality at 50 µg/cm2 in assay [1] and in assay [2] was 50 to 100% throughout. Besides, the mortality at 200 ppm in assay [3] is less than 80%.

In the case of `COc1ccccc1NC(=S)N/N=C/c1ccc(-c2ncn(-c3ccc(OC(F)(F)F)cc3)n2)cc1` [Compound 74], the mortality at 50 µg/cm2 in assay [1] and in assay [2] was 50 to 100% in each case. Also, the mortality at 200 ppm in assay [3] is less than 80%.

In the case of `CNC(=S)N/N=C/c1ccc(-c2ncn(-c3ccc(C(F)(F)F)cc3)n2)cc1` [Compound 15], the mortality at 50 µg/cm2 in assay [1] and in assay [2] was 50 to 100% throughout. Also, the mortality at 200 ppm in assay [3] was less than 80%.

Regarding `COc1cc(C)c(NC(=S)N/N=C/c2ccc(-c3ncn(-c4ccc(OC(F)(F)C(F)(F)F)cc4)n3)cc2)c(C)c1` [Compound 128], the mortality at 50 µg/cm2 in assay [1] and in assay [2] was 50 to 100% each time. Besides, in assay [3], the mortality at 200 ppm was less than 80%.

As to `CNC(=S)N/N=C/c1ccc(-c2ncn(-c3ccc(OC(F)(F)F)cc3)n2)cc1` [Compound 13], the mortality at 50 µg/cm2 in assay [1] and in assay [2] was 50 to 100% each time. In addition, the mortality at 200 ppm in assay [3] is less than 80%.

As to `FC(F)(F)Oc1ccc(-n2cnc(-c3ccc(/C=N/NC(=S)NCCN4CCOCC4)cc3)n2)cc1` [Compound 16], the mortality at 50 µg/cm2 in assay [1] and in assay [2] was 50 to 100% throughout. Also, the mortality at 200 ppm in assay [3] is less than 80%.

As to `Nc1ccc(NC(=S)N/N=C/c2ccc(-c3ncn(-c4ccc(OC(F)(F)F)cc4)n3)cc2)cc1` [Compound 81], the mortality at 50 µg/cm2 in assay [1] and in assay [2] was 50 to 100% in each case. Besides, the mortality at 200 ppm in assay [3] was less than 80%.

`COc1ccccc1C(C)NC(=S)N/N=C/c1ccc(-c2ncn(-c3ccc(OC(F)(F)F)cc3)n2)cc1` (stereo not shown) [Compound 148]: the mortality at 50 µg/cm2 in assay [1] and in assay [2] was 50 to 100% in each case.

Take `CSc1cc(C)c(NC(=S)N/N=C/c2ccc(-c3ncn(-c4ccc(OC(F)(F)F)cc4)n3)cc2)c(C)c1` [Compound 100]: the mortality at 50 µg/cm2 in assay [1] and in assay [2] was 50 to 100% each time.

Turning to `CCCCc1ccc(-n2cnc(-c3ccc(/C=N/NC(=S)Nc4c(C)cc(OC)cc4C)cc3)n2)cc1` [Compound 124], the mortality at 50 µg/cm2 in assay [1] and in assay [2] was 50 to 100% throughout.

In the case of `COC(=O)c1ccccc1NC(=S)N/N=C/c1ccc(-c2ncn(-c3ccc(OC(F)(F)F)cc3)n2)cc1` [Compound 84], the mortality at 50 µg/cm2 in assay [1] and in assay [2] was less than 50% each time.

Regarding `FC(F)(F)Oc1ccc(-n2cnc(-c3ccc(/C=N/NC(=S)Nc4ccccc4I)cc3)n2)cc1` [Compound 60], the mortality at 50 µg/cm2 in assay [1] and in assay [2] was 50 to 100% throughout.

With `CC(C)c1ccccc1NC(=S)N/N=C/c1ccc(-c2ncn(-c3ccc(OC(F)(F)F)cc3)n2)cc1` [Compound 80], the mortality at 50 µg/cm2 in assay [1] and in assay [2] was 50 to 100% each time.

`CC(NC(=S)N/N=C/c1ccc(-c2ncn(-c3ccc(OC(F)(F)F)cc3)n2)cc1)c1ccsc1` (stereo not shown) [Compound 155]: the mortality at 50 µg/cm2 in assay [1] and in assay [2] was 50 to 100% in each case.

With `Cc1cc(Cl)cc(C)c1NC(=S)N/N=C/c1ccc(-c2ncn(-c3ccc(OC(F)(F)F)cc3)n2)cc1` [Compound 114], the mortality at 50 µg/cm2 in assay [1] and in assay [2] was 50 to 100% in each case.

Take `Cc1cc(F)cc(C)c1NC(=S)N/N=C/c1ccc(-c2ncn(-c3ccc(OC(F)(F)F)cc3)n2)cc1` [Compound 112]: the mortality at 50 µg/cm2 in assay [1] and in assay [2] was 50 to 100% each time.

On to `FC(F)(F)Oc1ccc(-n2cnc(-c3ccc(/C=N/NC(=S)NCc4ccsc4)cc3)n2)cc1` [Compound 154], for which the mortality at 50 µg/cm2 in assay [1] and in assay [2] was 50 to 100% in each case.

On to `COc1cc(F)c(NC(=S)N/N=C/c2ccc(-c3ncn(-c4ccc(OC(F)(F)F)cc4)n3)cc2)c(F)c1` [Compound 108], for which the mortality at 50 µg/cm2 in assay [1] and in assay [2] was 50 to 100% each time.

On to `COC(=O)C1CC(c2ccc(/C=N/NC(=S)Nc3c(Cl)cccc3Cl)cc2)=NN1c1ccc(OC(F)(F)F)cc1` (stereo not shown) [Compound 131], for which the mortality at 50 µg/cm2 in assay [1] and in assay [2] was 50 to 100% throughout.

Regarding `FC(F)(F)Oc1ccc(-n2ccc(-c3ccc(/C=N/NC(=S)Nc4c(Cl)cccc4Cl)cc3)n2)cc1` [Compound 137], the mortality at 50 µg/cm2 in assay [1] and in assay [2] was 50 to 100% throughout.

Consider `Cc1ccc(Cl)c(C)c1NC(=S)N/N=C/c1ccc(-c2ncn(-c3ccc(OC(F)(F)F)cc3)n2)cc1` [Compound 101], for which the mortality at 50 µg/cm2 in assay [1] and in assay [2] was 50 to 100% throughout.

As for `Fc1cc(F)c(NC(=S)N/N=C/c2ccc(-c3ncn(-c4ccc(OC(F)(F)F)cc4)n3)cc2)c(F)c1` [Compound 98], the mortality at 50 µg/cm2 in assay [1] and in assay [2] was 50 to 100% each time.

For `COC(=O)C1CC(c2ccc(/C=N/NC(=S)Nc3c(C)cccc3C)cc2)=NN1c1ccc(OC(F)(F)F)cc1` (stereo not shown) [Compound 130], the mortality at 50 µg/cm2 in assay [1] and in assay [2] was 50 to 100% throughout.

As for `FC(F)(F)Oc1ccc(N2CCC(c3ccc(/C=N/NC(=S)Nc4c(Cl)cccc4Cl)cc3)=N2)cc1` [Compound 141], the mortality at 50 µg/cm2 in assay [1] and in assay [2] was 50 to 100% throughout.

Turning to `Cc1ccsc1CNC(=S)N/N=C/c1ccc(-c2ncn(-c3ccc(OC(F)(F)F)cc3)n2)cc1` [Compound 156], the mortality at 50 µg/cm2 in assay [1] and in assay [2] was 50 to 100% each time.

As to `CC(NC(=S)N/N=C/c1ccc(-c2ncn(-c3ccc(OC(F)(F)F)cc3)n2)cc1)c1ccc2c(c1)OCO2` (stereo not shown) [Compound 159], the mortality at 50 µg/cm2 in assay [1] and in assay [2] was 50 to 100% each time.

Take `CC(NC(=S)N/N=C/c1ccc(-c2ncn(-c3ccc(OC(F)(F)F)cc3)n2)cc1)c1ccc(Br)cc1` (stereo not shown) [Compound 146]: the mortality at 50 µg/cm2 in assay [1] and in assay [2] was 50 to 100% in each case.

As for `Cc1ccc(C(C)NC(=S)N/N=C/c2ccc(-c3ncn(-c4ccc(OC(F)(F)F)cc4)n3)cc2)cc1` (stereo not shown) [Compound 144], the mortality at 50 µg/cm2 in assay [1] and in assay [2] was 50 to 100% in each case.

Consider `Cc1cccc(C)c1NC(=S)N/N=C/c1ccc(-c2ccn(-c3ccc(OC(F)(F)F)cc3)n2)cc1` [Compound 136], for which the mortality at 50 µg/cm2 in assay [1] and in assay [2] was 50 to 100% each time.

As for `FC(F)(F)Oc1ccc(-n2cnc(-c3ccc(/C=N/NC(=S)Nc4ncc(Cl)cc4Cl)cc3)n2)cc1` [Compound 113], the mortality at 50 µg/cm2 in assay [1] and in assay [2] was less than 50% throughout.

As to `COc1ccc(C)cc1NC(=S)N/N=C/c1ccc(-c2ncn(-c3ccc(OC(F)(F)F)cc3)n2)cc1` [Compound 89], the mortality at 50 µg/cm2 in assay [1] and in assay [2] was 50 to 100% in each case.

As to `CCCc1ccccc1NC(=S)N/N=C/c1ccc(-c2ncn(-c3ccc(OC(F)(F)F)cc3)n2)cc1` [Compound 82], the mortality at 50 µg/cm2 in assay [1] and in assay [2] was 50 to 100% in each case.

Consider `COc1ccc(C(C)NC(=S)N/N=C/c2ccc(-c3ncn(-c4ccc(OC(F)(F)F)cc4)n3)cc2)cc1` (stereo not shown) [Compound 143], for which the mortality at 50 µg/cm2 in assay [1] and in assay [2] was 50 to 100% each time.
